One data set concerns the target T1, CD206 (Homo sapiens, UniProt P22897).
T1 sequence (P22897 19-1456): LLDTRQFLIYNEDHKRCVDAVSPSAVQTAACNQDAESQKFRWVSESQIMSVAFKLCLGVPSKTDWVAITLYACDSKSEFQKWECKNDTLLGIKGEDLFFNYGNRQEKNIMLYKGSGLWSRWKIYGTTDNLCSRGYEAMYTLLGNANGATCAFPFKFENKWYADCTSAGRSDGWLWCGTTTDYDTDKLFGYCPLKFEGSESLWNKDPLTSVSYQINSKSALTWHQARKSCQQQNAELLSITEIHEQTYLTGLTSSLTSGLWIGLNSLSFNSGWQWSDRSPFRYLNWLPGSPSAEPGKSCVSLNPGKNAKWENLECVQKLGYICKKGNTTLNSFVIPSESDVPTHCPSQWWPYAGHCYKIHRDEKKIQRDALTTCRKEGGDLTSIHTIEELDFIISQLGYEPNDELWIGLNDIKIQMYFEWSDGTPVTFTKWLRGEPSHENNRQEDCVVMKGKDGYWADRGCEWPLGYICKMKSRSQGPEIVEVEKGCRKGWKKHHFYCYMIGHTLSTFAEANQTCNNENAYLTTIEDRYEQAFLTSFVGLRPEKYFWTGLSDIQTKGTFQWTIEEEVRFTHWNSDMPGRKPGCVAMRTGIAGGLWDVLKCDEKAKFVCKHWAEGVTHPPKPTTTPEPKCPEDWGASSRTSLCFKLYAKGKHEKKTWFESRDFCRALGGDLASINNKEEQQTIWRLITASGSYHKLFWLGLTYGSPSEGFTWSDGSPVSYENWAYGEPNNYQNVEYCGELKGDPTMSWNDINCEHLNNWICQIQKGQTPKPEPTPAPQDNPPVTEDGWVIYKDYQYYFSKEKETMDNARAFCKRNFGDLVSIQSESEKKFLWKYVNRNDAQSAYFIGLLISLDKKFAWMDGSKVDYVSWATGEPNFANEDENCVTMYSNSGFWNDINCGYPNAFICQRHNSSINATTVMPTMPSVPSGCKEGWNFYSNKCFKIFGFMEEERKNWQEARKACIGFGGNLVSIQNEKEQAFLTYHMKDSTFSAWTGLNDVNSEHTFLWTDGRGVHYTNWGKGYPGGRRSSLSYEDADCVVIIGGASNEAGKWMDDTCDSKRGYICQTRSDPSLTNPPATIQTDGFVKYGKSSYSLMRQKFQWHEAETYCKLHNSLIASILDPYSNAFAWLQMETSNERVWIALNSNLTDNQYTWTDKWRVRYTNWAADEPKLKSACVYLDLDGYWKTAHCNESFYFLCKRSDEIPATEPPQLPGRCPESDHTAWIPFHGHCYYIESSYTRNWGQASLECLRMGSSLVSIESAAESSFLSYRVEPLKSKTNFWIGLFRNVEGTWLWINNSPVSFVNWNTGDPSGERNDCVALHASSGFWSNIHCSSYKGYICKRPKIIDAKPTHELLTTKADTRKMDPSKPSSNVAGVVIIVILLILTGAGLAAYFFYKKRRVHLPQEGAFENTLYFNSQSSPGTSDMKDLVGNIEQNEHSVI
Conditions: read-out: binding affinity to CD206 (IC50); cited from earlier work.

The subject of another data set is CD206+ macrophages. The data set can be described thus: MR imaging in mouse model of cutaneous wound healing. The conditions noted are these: for contrast-to-noise ratio (CNR) time course: wildtype mice, day 7 after wound induction. It counts as in vivo. Here is the method:
Eight-to nine-week-old C57BL/6J female mice were used for MRI of wound healing and glioma (Jackson Laboratory, ME). The generation of wound healing and glioma is described in Examples 14 and 15, respectively. The mice with subcutaneous wounds were imaged on days 1, 4, and 7 longitudinally or on day 7. Mice with glioma were imaged on the third week. All the mice were imaged pre- and at 0, 15, 30, 45 and 60 min after 0.3 mmol/kg of Mann2-DTPA-Gd or MannGdFish was administered intravenously via a tail vein using serial T1 rapid acquisition with relaxation enhancement (RARE) sequence (TR: 935.77 ms, TE: 13.59 ms, averages: 12, rare factor: 4, 256×256×48 matrix size, 0.156×0.156×1 mm^3 voxel size) with chemical fat suppression using a Hermitian pulse shape with an 8.253 ms pulse and 701.19 Hz bandwidth 3.5 ppm down from the water peak and respiratory gating on a 4.7 T small animal MR scanner (Bruker, Cambridge, MA) with a 3 cm quadrature volume coil (Rapid MR International, Germany). Regions of interest (ROIs) were drawn and the contrast-to-noise ratios (CNRs, CNRpre-contrast subtracted) were calculated by a radiologist with over 20 years of experience blinded to the identity of the imaging agent used and the strain of the mice (n=3 per group).
Wound healing procedure. Seven-to ten-week-old C57BL/6J female mice (The Jackson Laboratories, ME) and mannose-receptor deficient mice were used in this study. A circular outline on the back of a mouse was made with a 4 mm biopsy punch (Kai Medical, Japan) under anesthesia using isoflurane. Then a full-thickness excisional wound was generated that extended through the subcutaneous tissue. A silicone splint was glued over the wound, anchored with 6-0 nylon sutures, and covered with a transparent occlusive dressing (OpSite). Xylazine/norepinephrine (100 μL) were intraperitoneally injected twice a day for two days and the mice were monitored daily.

The subject of data set [1] is M1 and M2 macrophages differentiated from Raw 264.7 cells. The data set can be described thus: fluorescence imaging of M1- and M2-differentiated macrophages. The conditions noted are these: incubated at 37° C. It counts as cell-based. Here is the method:
M1- and M2-differentiated macrophages were incubated with 1/1000 dilution of MR2-cy5 stock solution (10 mM in DMSO) for 1 h at 37° C. and counter-stained with DAPI (4′,6-diamidino-2-phenylindole, Invitrogen). The cells were washed with PBS and fluorescence imaging was captured with a digital microscope (Nikon Eclipse TE2000-U).
M1 and M2 polarized differentiation. Raw 264.7 cells (Passage 8 from the cell core of center for Systems Biology at Massachusetts General Hospital, Boston) in 10 mL petri dishes were cultured with Dulbecco's modified eagle medium with high glucose (DMEM, Thermo Fisher Scientific, NY, USA) containing 10% of fetal bovine serum (FBS, Sigma-Aldrich, MO, USA) and 0.5% streptomycin/penicillin (Cellgro) until reaching 80% of confluency. Then differentiating media containing IFN-gamma (100 ng/ml the above medium) for M1 polarization and IL-4 (100 ng/mL) for M2 polarization were added to the dishes, respectively. After 24 h, the M1 and M2 polarized macrophages were ready for the following experiments.

Data set [2] is described as follows: in vitro relaxivity (r1), Bruker Minispect. It counts as physicochemical. Here is the method: Relaxation time (T1) of Mann2-DTPA-Gd/MannGdFish at concentrations of 0.1, 0.2, 0.3, 0.5, 0.6, 0.75, and 1 mM in PBS was measured on the Bruker Minispect (Bruker Analytics, MA) at 0.47 T (20 MHz) at 40° C. The slope value of the linear function of 1/T1 (s) to their corresponding concentrations is defined as the relaxivity (n=3 for each concentration).

Another data set deals with RAW 264.7 cells. The data set can be described thus: cytotoxicity, MTT assay. Type of data set: cell-based. The conditions noted are these: n=3. Here is the method: The cytotoxicity of MannGdFish was evaluated using RAW264.7 cells (Passage 8 from the cell core of the Center for Systems Biology at Massachusetts General Hospital, Boston) with an MTT assay as described by Wang et. al (J Med Chem 64, 5874-5885 (2021)) (n=3).

Data set [3] is described as follows: biodistribution and retention by ICP-MS in mice with cutaneous wound. It counts as in vivo, mouse. Here is the method: (§1) 6-10 weeks old of C57BL/6J mice were administered with MannGdFish intravenously 24 h after the wound injury. At 3 h and on day 7 after induction, mice were sacrificed and major organs including wound skins and the counter skins were harvested (n=3 for each time point). Blood samples were collected before and at different time points after the administration of MannGdFish (n=6) and centrifuged to obtain the plasma. The samples were weighed, treated with nitric acid, and subjected to inductively coupled plasma mass spectrometry (ICP-MS) to determine the amount of gadolinium as described in Example 6.

A short description of data set [4]: blood half-life by ICP-MS. Type of data set: in vivo, mouse. The conditions noted are these: two-phase exponential model. The procedure: as §1
The nature of data set [5]: PET imaging of [68]Ga-MannGaFish. The conditions noted are these: in vivo.

Results on six compounds are retold here after US20260183432A1, “IMAGING AGENTS FOR DETECTING CD206+ MACROPHAGES” (THE GENERAL HOSPITAL CORPORATION, priority 2022, published 2026).

“Also recorded” adds a separate entry of the source. A value given as a limit tells only on which side of the number the result lay.

For the compound `O=C[C@@H](O)[C@@H](O)[C@H](O)[C@H](O)CO` [D-mannose], the IC50 on CD206 is 5.5 mM.
In the case of `O=C([O-])CN1CCN(CC(=O)[O-])CCN(CC(=O)O)CCN(CC(=O)[O-])CC1.[Gd+3]` [DOTA-Gd, reference compound], the “contrast-to-noise ratio (CNR) time course” value in the data set on CD206+ macrophages is given as “decreased significantly 15 min post-injection; also recorded: decreased rapidly after peaking at 15 min post-injection”.
On to `CC[N+]1=C(/C=C/C=C/C=C2/N(CCCCCC(=O)NC3C(O)OC(CO)C(O)C3O)c3ccc(S(=O)(=O)O)cc3C2(C)C)C(C)(C)c2cc(S(=O)(=O)[O-])ccc21` (stereo not shown) [MR1-cy5], for which, in data set [1], the “fluorescence signal, M2 versus M1 macrophages (specificity)” value is given as “low specificity to M2 macrophages”.
The same measure, in the same setting: as for `CC[N+]1=C(/C=C/C=C/C=C2/N(CCCCCC(=O)NC(COC3OC(CO)C(O)C(O)C3O)COC3OC(CO)C(O)C(O)C3O)c3ccc(S(=O)(=O)O)cc3C2(C)C)C(C)(C)c2cc(S(=O)(=O)[O-])ccc21` (stereo not shown) [MR2-cy5], the entry is “much higher signal from M2 macrophages than that from M1 macrophages; also recorded: much higher signal in M2 macrophages compared to that in M1 macrophages”.
Take `O=C([O-])CN1CCN(CC(=O)[O-])CCN(C(CCC(=O)NC(COC2OC(CO)C(O)C(O)C2O)COC2OC(CO)C(O)C(O)C2O)C(=O)[O-])CCN(CC(=O)O)CC1.[Gd+3]` (stereo not shown) [MannGdFish]: the “relaxivity (r1)” value in data set [2] was determined as 5.2 mmol⁻¹ s⁻¹. In the data set on CD206+ macrophages (60 min, wound healing day 7), the “MR signal compared to DOTA-Gd” value was “much higher in comparison with that of DOTA-Gd; also recorded: much higher compared to that of DOTA-Gd”. For the same compound, the “contrast-to-noise ratio (CNR) time course” value in the data set on CD206+ macrophages was “slow decrease of CNR”. For the same compound, the “CNR compared to Mann2-DTPA-Gd” value in the data set on CD206+ macrophages (wildtype wound healing mice, day 7) was “slightly higher CNRs and similar dynamic profile as that of Mann2-DTPA-Gd; also recorded: slightly higher compared to that of Mann2-DTPA-Gd”. Moreover, the “cytotoxicity: concentration up to which no cytotoxic effect was observed” value in the data set with RAW 264.7 cells was > 5 mM. Further, the “gadolinium in wound versus normal skin” value in data set [3] (3 h after administration, wound 24 h post-injury) was “low and not significantly different compared to that in the normal skin”. In addition, the “major organs containing gadolinium” value in data set [3] (3 h and day 7) was “liver and spleen being the major organs containing gadolinium”. Further, in data set [3] (3 h and day 7, ICP-MS), the “accumulation or retention of Gd in the body” value is reported as < 0.5 nmol Gd per gram tissue. The “gadolinium in wound versus normal skin” value in data set [3] (day 7) was “higher in the wound than that in the normal skin”. Besides, in data set [4], the “blood half-life, fast phase” value was found to be 0.3 min and the “blood half-life, slow phase” value is listed as 6.1 min.
Turning to `O=C([O-])CN1CCN(CC(=O)[O-])CCN(C(CCC(=O)NC(COC2OC(CO)C(O)C(O)C2O)COC2OC(CO)C(O)C(O)C2O)C(=O)[O-])CCN(CC(=O)O)CC1.[68Ga+3]` (stereo not shown) [[68]Ga-MannGaFish], in data set [5], the “uptake in organs on PET imaging” value is “low uptakes in the lungs and heart”.

By IC50 is commonly meant the concentration needed to halve the response being measured.
